In patent US20230295157A1, “3-(1H-IMIDAZOL-2-YL)-2,3,8,8A-TETRAHYDROINDOLIZIN-5(1H)-ONE DERIVATIVES USEFUL AS FACTOR XIA INHIBITORS” (JANSSEN PHARMACEUTICA NV, priority 2020, published 2023):
Where two headings read alike, the source gives them in different places.

Legend:
Factor XIa = Factor XIa (Homo sapiens (Human), UniProt P03951); assay: Factor XIa inhibition assay (FLINT) utilizing a fluorophore-quencher pair peptide substrate; format: biochemical; details: 30 min preincubation, read-out: FXIa Kin Inh IC50
Factor XIa, sequence (P03951 388-625): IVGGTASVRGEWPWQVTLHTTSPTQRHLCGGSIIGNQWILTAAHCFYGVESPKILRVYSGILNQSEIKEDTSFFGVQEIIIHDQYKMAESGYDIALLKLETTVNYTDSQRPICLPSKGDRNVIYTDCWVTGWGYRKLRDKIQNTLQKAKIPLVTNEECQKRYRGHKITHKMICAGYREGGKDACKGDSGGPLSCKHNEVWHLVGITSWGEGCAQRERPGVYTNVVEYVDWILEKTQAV
Factor XIa, sequence (P03951 19-387 partner): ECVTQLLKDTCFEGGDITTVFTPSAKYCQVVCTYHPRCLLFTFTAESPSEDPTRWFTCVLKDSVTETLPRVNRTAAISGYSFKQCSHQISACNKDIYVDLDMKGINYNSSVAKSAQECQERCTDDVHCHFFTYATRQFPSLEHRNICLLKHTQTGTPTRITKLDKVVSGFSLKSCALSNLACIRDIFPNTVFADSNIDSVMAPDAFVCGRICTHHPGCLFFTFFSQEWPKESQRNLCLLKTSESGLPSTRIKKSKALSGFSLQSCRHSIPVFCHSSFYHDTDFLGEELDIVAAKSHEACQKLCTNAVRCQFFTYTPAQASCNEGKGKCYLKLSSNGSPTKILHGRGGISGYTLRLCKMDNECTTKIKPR
In short: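 FXIa ([…]) preincubated 30 min with compound (11-point 3-fold dilution, top 100 nM, 2% DMSO), then 15 μM quenched FXI Arg146-based peptide added; Tris pH 7.5, CaCl2, BSA, CHAPS. Fluorescence 485/520 nm read kinetically every 5 min over 30 min at RT; IC50 by 4-parameter fit.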

human plasma kallikrein = human plasma kallikrein (Homo sapiens (Human), UniProt P03952); assay: Kallikrein inhibition assay (FLINT) utilizing a quenched AMC peptide substrate; format: biochemical; details: 30 min preincubation, read-out: Kallikrein Kin Inh IC50
human plasma kallikrein, sequence (P03952 391-638): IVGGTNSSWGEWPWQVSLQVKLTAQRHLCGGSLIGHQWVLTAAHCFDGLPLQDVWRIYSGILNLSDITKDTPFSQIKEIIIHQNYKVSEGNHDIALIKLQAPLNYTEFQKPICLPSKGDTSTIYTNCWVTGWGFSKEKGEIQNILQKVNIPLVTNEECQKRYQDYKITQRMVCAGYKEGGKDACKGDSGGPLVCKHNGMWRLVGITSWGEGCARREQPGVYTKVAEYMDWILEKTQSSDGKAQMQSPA
human plasma kallikrein, sequence (P03952 20-390 partner): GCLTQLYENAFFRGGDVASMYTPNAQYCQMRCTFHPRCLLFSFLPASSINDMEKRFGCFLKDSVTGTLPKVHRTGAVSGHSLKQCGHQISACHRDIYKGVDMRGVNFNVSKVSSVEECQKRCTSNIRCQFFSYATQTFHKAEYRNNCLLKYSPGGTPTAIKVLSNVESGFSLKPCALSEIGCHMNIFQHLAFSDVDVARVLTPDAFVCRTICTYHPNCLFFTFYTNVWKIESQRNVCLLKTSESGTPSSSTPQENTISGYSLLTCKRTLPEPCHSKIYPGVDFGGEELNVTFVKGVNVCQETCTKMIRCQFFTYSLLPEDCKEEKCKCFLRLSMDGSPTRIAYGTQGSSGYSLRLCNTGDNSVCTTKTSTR
In short: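 Enzyme (2 nM final) pre-incubated 30 min at room temperature with compound (11-point, 3-fold, top 1 μM, 2% DMSO), then 50 μM Z-Gly-Pro-Arg-AMC added in Tris pH 7.5 buffer. Kinetic fluorescence 340/440 nm every 5 min over 30 min; IC50 from 4-parameter logistic fit.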

[1] = kinetic reads over 30 min, 5Fam-KLTRAETV-K5Tamra substrate 15 μM
[2] = kinetic reads over 30 min, Z-Gly-Pro-Arg-AMC substrate 50 μM
[3] = kinetic reads over 30 min, 5Fam-[…]-K5Tamra substrate 15 μM

Compound | IC50 (Factor XIa; [1]) [µM] | IC50 (human plasma kallikrein; [2]) [µM] | IC50 (Factor XIa; [3]) [µM] | IC50 (Factor XIa; μM, kinetic reads) [µM] | IC50 (human plasma kallikrein; μM, kinetic reads) [µM]
O=C1C=C(c2c(-n3cnnn3)ccc(Cl)c2F)C[C@H]2CC[C@@H](c3ncc(-c4ccnc([C@@H](O)C(F)(F)F)c4)[nH]3)N12 (relative stereo) [Example 175, (3S*,8 aR*)-7-(3-chloro-2-fluoro-6-(1H-tetrazol-1-yl)phenyl)-3-(5-(2-((R*)-2,2,2-trifluoro-1-hydroxyethyl)pyridin-4-yl)-1H-imidazol-2-yl)-2,3,8,8a-tetrahydroindolizin-5(1H)-one] |  | 0.0303 | 0.0095 |  | 
COC(=O)Nc1ccc(-c2cnc([C@@H]3CCC4CC(c5c(OCC(F)(F)F)ccc(Cl)c5F)=CC(=O)N43)[nH]2)cc1 (stereo partly drawn) [Example 324, Methyl (4-(2-((3S)-7-(3-Chloro-2-fluoro-6-(2,2,2-trifluoroethoxy)phenyl)-5-oxo-1,2,3,5,8,8a-hexahydroindolizin-3-yl)-1H-imidazol-5-yl)phenyl)carbamate] | 0.0143 | 0.095 |  |  | 
Nc1ccc(-c2cnc([C@H]3CC[C@@H]4CC(c5c(-n6cnnn6)ccc(Cl)c5F)=CC(=O)N43)[nH]2)c(F)n1 [Example 356, (3R,8aR)-3-(5-(6-Amino-2-fluoropyridin-3-yl)-1H-imidazol-2-yl)-7-(3-chloro-2-fluoro-6-(1H-tetrazol-1-yl)phenyl)-2,3,8,8a-tetrahydroindolizin-5(1H)-one] |  |  |  | 7.4 | > 10
O=C1OCCN1c1nccc(-c2cnc([C@@H]3CC[C@@H]4CC(c5c(-n6cnnn6)ccc(Cl)c5F)=CC(=O)N43)[nH]2)c1F [Example 114, 3-[4-[2-[(3S,8aR)-7-[3-chloro-2-fluoro-6-(tetrazol-1-yl)phenyl]-5-oxo-2,3,8,8a-tetrahydro-1H-indolizin-3-yl]-1H-imidazol-5-yl]-3-fluoro-2-pyridyl]oxazolidin-2-one] | 0.0094 | 0.0559 |  |  | 
O=C1C=C(c2c(-n3cnnn3)ccc(Cl)c2F)C[C@H]2CC[C@@H](c3ncc(-c4ccc(CO)nc4Cl)[nH]3)N12 [Example 236, (3S,8aR)-7-(3-Chloro-2-fluoro-6-(1H-tetrazol-1-yl)phenyl)-3-(5-(2-chloro-6-(hydroxymethyl)pyridin-3-yl)-1H-imidazol-2-yl)-2,3,8,8a-tetrahydroindolizin-5(1H)-one] | 0.0053 | 0.0216 |  |  | 
O=C1C=C(c2c(-n3cnnn3)ccc(Cl)c2F)C[C@H]2CC[C@H](c3ncc(-c4ccnc(-n5cnnc5)c4F)[nH]3)N12 (relative stereo) [Example 78, (3R*,8aR)-7-(3-chloro-2-fluoro-6-(1H-tetrazol-1-yl)phenyl)-3-(5-(3-fluoro-2-(4H-1,2,4-triazol-4-yl)pyridin-4-yl)-1H-imidazol-2-yl)-2,3,8,8a-tetrahydroindolizin-5(1H)-one] |  | 0.136 | 0.0409 |  | 
O=C1C=C(c2c(-n3cnnn3)ccc(Cl)c2F)C[C@H]2CC[C@@H](c3ncc(-c4ccnc([C@@H](O)C(F)(F)F)c4F)[nH]3)N12 (single isomer, unassigned) [Example 171, (3*S,8a*R)-7-(3-chloro-2-fluoro-6-(1H-tetrazol-1-yl)phenyl)-3-(5-(3-fluoro-2-((*R)-2,2,2-trifluoro-1-hydroxyethyl)pyridin-4-yl)-1H-imidazol-2-yl)-2,3,8,8a-tetrahydroindolizin-5(1H)-one] | 0.0041 | 0.0317 |  |  | 
O=C1C=C(c2c(OC(F)F)ccc(Cl)c2F)C[C@H]2CC[C@@H](c3nc(F)c(-c4ccnc(CO)c4F)[nH]3)N12 [Example 23, (3S,8aR)-7-(3-Chloro-6-(difluoromethoxy)-2-fluorophenyl)-3-(4-fluoro-5-(3-fluoro-2-(hydroxymethyl)pyridin-4yl)-1H-imidazol-2-yl)-2,3,8,8a-tetrahydroindolizin-5(1H)-one] | 0.0501 | 0.265 |  |  | 
CC(=O)Nc1cnc(C(F)(F)F)cc1-c1cnc([C@@H]2CC[C@H]3CC(c4c(-n5cnnn5)ccc(Cl)c4F)=CC(=O)N32)[nH]1 [Example 244, N-[4 [2-[(3S,8aS)-7-[3-Chloro-2-fluoro-6-(tetrazol-1-yl)phenyl]-5-oxo-2,3,8,8a-tetrahydro-1H-indolizin-3-yl]-1H-imidazol-5-yl]-6-(trifluoromethyl)-3-pyridyl]acetamide] | > 0.1 | 0.73 |  |  | 
COC(=O)Nc1ccccc1-c1cnc([C@@H]2CC[C@H]3CC(c4c(-n5cnnn5)ccc(Cl)c4F)=CC(=O)N32)[nH]1 (relative stereo) [Example 302, Methyl 2-(24(3S,8aS*)-7-(3-chloro-2-fluoro-6-(1H-tetrazol-1-yl)phenyl)-5-oxo-1,2,3,5,8,8a-hexahydroindolizin-3-yl)-1H-imidazol-4-yl)phenylcarbamate] |  | 0.0291 | 0.0104 |  | 
CS(=O)(=O)Nc1cc(-c2cnc(C3CCC4CC(c5c(-n6cnnn6)ccc(Cl)c5F)=CC(=O)N43)[nH]2)ccn1 (stereo not drawn) [Example 7, N-[4-[2-[7-[3-Chloro-2-fluoro-6-(tetrazol-1-yl)phenyl]-5-oxo-2,3,8,8a-tetrahydro-1H-indolizin-3-yl]-1H-imidazol-5-yl]-2-pyridyl]methanesulfonamide] | 0.0064 | 0.0701 |  |  | 

Second part, the compound after the results:

IC50 (Factor XIa; [1]) [µM] | IC50 (human plasma kallikrein; [2]) [µM] | IC50 (Factor XIa; [3]) [µM] | IC50 (Factor XIa; μM, kinetic reads) [µM] | IC50 (human plasma kallikrein; μM, kinetic reads) [µM] | Compound
0.0001 | 0.0025 |  |  |  | O=C1C=C(c2c(-n3cnnn3)ccc(Cl)c2F)C[C@H]2CC[C@@H](c3ncc(-c4ccnc5[nH]ccc45)[nH]3)N12 (single isomer, unassigned) [Example 362, (3S,8aR*)-3-(5-(1H-pyrrolo[2,3-b]pyridin-4-yl)-1H-imidazol-2-yl)-7-(3-chloro-2-fluoro-6-(1H-tetrazol-1-yl)phenyl)-2,3,8,8a-tetrahydroindolizin-5(1H)-one]
0.0021 | 0.0044 |  |  |  | Cc1nc2ccc(-c3cnc([C@@H]4CC[C@@H]5CC(c6c(-n7cnnn7)ccc(Cl)c6F)=CC(=O)N54)[nH]3)cc2[nH]1 [Example 30, (3S,8aR)-7-(3-chloro-2-fluoro-6-(1H-tetrazol-1-yl)phenyl)-3-(5-(2-methyl-1H-benzo[d]imidazol-6-yl)-1H-imidazol-2-yl)-2,3,8,8a-tetrahydroindolizin-5(1H)-one]
0.0035 | 0.0059 |  |  |  | O=C1Cc2cc(-c3cnc([C@@H]4CC[C@H]5CC(c6c(-n7cnnn7)ccc(Cl)c6F)=CC(=O)N54)[nH]3)ccc2N1 [Example 283, 5-(2-((3S,8aS)-7-(3-Chloro-2-fluoro-6-(1H-tetrazol-1-yl)phenyl)-5-oxo-1,2,3,5,8,8a-hexahydroindolizin-3-yl)-1H-imidazol-5-yl)indolin-2-one]
0.0009 | 0.0011 |  |  |  | COc1ccc(-c2c[nH]c([C@@H]3CC[C@@H]4CC(c5c(-n6cnnn6)ccc(Cl)c5F)=CC(=O)N43)n2)c(NC(=O)C2CC2)c1 [Example 266, N-(2-(2-((3S,8aR)-7-(3-Chloro-2-fluoro-6-(1H-tetrazol-1-yl)phenyl)-5-oxo-1,2,3,5,8,8a-hexahydroindolizin-3-yl)-1H-imidazol-4-yl)-5-methoxyphenyl)cyclopropanecarboxamide]
0.0006 | 0.0034 |  |  |  | NC(=O)c1ccc(-c2cnc([C@@H]3CC[C@@H]4CC(c5c(-n6cnnn6)ccc(Cl)c5F)=CC(=O)N43)[nH]2)c(F)c1 [Example 196, 4-(2-((3S,8aR)-7-(3-chloro-2-fluoro-6-(1H-tetrazol-1-yl)phenyl)-5-oxo-1,2,3,5,8,8a-hexahydroindolizin-3-yl)-1H-imidazol-4-yl)-3-fluorobenzamide]
 | 0.0143 | 0.0305 |  |  | NC(=O)c1ccc(-c2c[nH]c([C@@H]3CC[C@H]4CC(c5c(-n6cnnn6)ccc(Cl)c5F)=CC(=O)N43)n2)cc1F [Example 198, 4-(2-((3S,8aS)-7-(3-chloro-2-fluoro-6-(1H-tetrazol-1-yl)phenyl)-5-oxo-1,2,3,5,8,8a-hexahydroindolizin-3-yl)-1H-imidazol-4-yl)-2-fluorobenzamide]
0.0021 | 0.0026 |  |  |  | O=C1C=C(c2c(-n3cnnn3)ccc(Cl)c2F)C[C@H]2CC[C@@H](c3nc(-c4ccnc5[nH]ncc45)c[nH]3)N12 [Example 38, (3S,8aR)-3-(4-(1H-pyrazolo[3,4-b]pyridin-4-yl)-1H-imidazol-2-yl)-7-(3-chloro-2-fluoro-6-(1H-tetrazol-1-yl)phenyl)-2,3,8,8a-tetrahydroindolizin-5(1H)-one]
0.0029 | 0.0038 |  |  |  | O=C1C=C(c2c(-n3cnnn3)ccc(Cl)c2F)C[C@H]2CC[C@@H](c3ncc(-c4ccnc(N5CCC5)c4F)[nH]3)N12 (single isomer, unassigned) [Example 111, (3*S,8aR)-3-(5-(2-(azetidin-1-yl)-3-fluoropyridin-4-yl)-1H-imidazol-2-yl)-7-(3-chloro-2-fluoro-6-(1H-tetrazol-1-yl)phenyl)-2,3,8,8a-tetrahydroindolizin-5(1H)-one]
0.0027 | 0.0073 |  |  |  | O=C1C=C(c2c(-n3cc(C(F)(F)F)nn3)ccc(Cl)c2F)CC2CC[C@@H](c3ncc(-c4c[nH]c5ncncc45)[nH]3)N12 (stereo partly drawn) [Example 365, (3S)-3-(5-(7H-pyrrolo[2,3-d]pyrimidin-5-yl)-1H-imidazol-2-yl)-7-(3-chloro-2-fluoro-6-(4-(trifluoromethyl)-1H-1,2,3-triazol-1-yl)phenyl)-2,3,8,8a-tetrahydroindolizin-5(1H)-one]
 | 0.0062 | 0.0069 |  |  | Nc1ccn(-c2nccc(-c3cnc([C@H]4CC[C@@H]5CC(c6c(-n7cnnn7)ccc(Cl)c6F)=CC(=O)N54)[nH]3)c2F)n1 (single isomer, unassigned) [Example 63]
